Experimental data: patent publication US6670367B1, “Azinyloxy, and phenoxy-diaryl-carboxylic acid derivatives, their preparation and use as mixed ETA/ETB endothelin receptor antagonists” (Abbott GmbH & Co., KG, priority 1996, dated 2003)

Columns and labels:
human ETA receptor = biological target: T1, human ETA receptor (Homo sapiens, UniProt P25101); assay: ETA receptor binding assay (125I-ET1, membranes of receptor-expressing CHO cells); conditions: cloned human ETA receptor, CHO cell membranes, 25 pM 125I-ET1, 25° C., 30 min
T1 construct: expressed in transfected cells; host or cells: CHO cells (membrane preparation)
T1 sequence (P25101 21-427): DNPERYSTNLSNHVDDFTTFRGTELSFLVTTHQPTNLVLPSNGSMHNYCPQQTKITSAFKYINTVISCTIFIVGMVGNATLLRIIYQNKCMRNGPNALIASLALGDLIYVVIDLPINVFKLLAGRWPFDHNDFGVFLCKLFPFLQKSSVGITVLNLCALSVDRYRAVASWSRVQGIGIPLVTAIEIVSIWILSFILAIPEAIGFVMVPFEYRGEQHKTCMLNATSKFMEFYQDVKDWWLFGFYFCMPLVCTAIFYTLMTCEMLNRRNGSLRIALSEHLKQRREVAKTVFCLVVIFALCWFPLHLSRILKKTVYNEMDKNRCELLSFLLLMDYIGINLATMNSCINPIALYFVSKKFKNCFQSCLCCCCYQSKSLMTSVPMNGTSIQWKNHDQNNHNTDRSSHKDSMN
Method: (§1) Cloned human ETA or ETB receptor-expressing CHO cells were employed for binding studies.
(§2) The ETA or ETB receptor-expressing CHO cells were grown in DMEM NUT MIX F12 medium (Gibco, No. 21331-020) with 10% fetal calf serum (PAA Laboratories GmbH, Linz, No. A15-022), 1 mM glutamine (Gibco No. 25030-024), 100 U/ml penicillin and 100 μg/ml streptomycin (Gibco, Sigma No. P-0781). After 48 hours, the cells were washed with PBS and incubated with 0.05% trypsin-containing PBS at 37° C. for 5 minutes. Neutralization with medium was then carried out, and the cells were collected by centrifugation at 300×g.
(§3) For the membrane preparation, the cells were adjusted to a concentration of 10^8 cells/ml of buffer (50 mM tris.HCL buffer, pH 7.4) and then disintegrated by ultrasound (Branson Sonifier 250, 40-70 seconds/constant/output 20).
(§4) For the ETA and ETB receptor binding assays, the membranes were suspended in incubation buffer (50 mM tris-HCl, pH 7,4 with 5 mM MnCl2, 40 μg/ml bacitracin and 0.2% BSA) at a concentration of 50 μg of protein per assay mixture, and incubated with 25 pM ^125I-ET1 (ETA receptor assay) or 25 pM ^125I-ET3 (ETB receptor assay) in the presence and absence of test substance at 25° C. The nonspecific binding was determined with 10^−7 M ET1. Filtration was carried out after 30 min through GF/B glassfiber filters (Whatman, England) in a Skatron cell collector (Skatron, Lier, Norway) to separate free and bound radio ligands, and the filters were washed with ice-cold tris-HCl buffer, pH 7.4 with 0.2% BSA. The radioactivity collected on the filters was quantified using a
(§5) Packard 2200 CA liquid scintillation counter.

human ETB receptor = biological target: T2, human ETB receptor (Homo sapiens, UniProt P24530); assay: ETB receptor binding assay (125I-ET3, membranes of receptor-expressing CHO cells); conditions: cloned human ETB receptor, CHO cell membranes, 25 pM 125I-ET3, 25° C., 30 min
T2 construct: expressed in transfected cells; host or cells: CHO cells (membrane preparation)
T2 sequence (P24530 27-442): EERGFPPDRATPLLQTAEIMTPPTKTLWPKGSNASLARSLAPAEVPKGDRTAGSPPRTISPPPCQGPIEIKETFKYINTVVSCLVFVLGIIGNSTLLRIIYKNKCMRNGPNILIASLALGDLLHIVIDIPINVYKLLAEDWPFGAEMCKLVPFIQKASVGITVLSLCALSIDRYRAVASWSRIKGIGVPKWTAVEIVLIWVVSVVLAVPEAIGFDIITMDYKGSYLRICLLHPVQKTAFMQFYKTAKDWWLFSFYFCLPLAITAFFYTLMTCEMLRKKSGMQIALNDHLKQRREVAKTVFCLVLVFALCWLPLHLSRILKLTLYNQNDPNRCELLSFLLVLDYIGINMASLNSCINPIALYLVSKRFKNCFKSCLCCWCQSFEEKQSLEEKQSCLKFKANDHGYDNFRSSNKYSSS
Method: as §1, §2, §3, §4, §5

CCc1ccc(C(OCCc2ccc(OC)c(OC)c2)(c2ccc(CC)cc2)C(Oc2nc(C)cc(OC)n2)C(=O)O)cc1 (stereo not drawn) [Compound I-116, 2-(4-Methoxy-6-methyl-2-pyrimidinyloxy)-3-(2-(3,4-dimethoxyphenyl)ethoxy)-3,3-di(4-ethylphenyl)propionic Acid]
Ki (human ETA receptor): 35 nM | Ki (human ETB receptor): 35 nM

COc1ccccc1CCOC(c1ccccc1)(c1ccccc1)C(Oc1nc(OC)c2c(n1)OCC2)C(=O)O (stereo not drawn) [Compound I-140]
Ki (human ETA receptor): 575 nM | Ki (human ETB receptor): 460 nM

CCOc1ccc(CCOC(c2ccccc2)(c2ccccc2)C(Oc2nc(C)cc(C)n2)C(=O)O)cc1OC (stereo not drawn) [Compound I-146, 2-(4,6-Dimethyl-2-pyrimidinyloxy)-3-(2-(4-ethoxy-3-methoxyphenyl)ethoxy)-3,3-diphenylpropionic Acid]
Ki (human ETA receptor): 4 nM | Ki (human ETB receptor): 29 nM

COc1cc(CCOC(c2ccccc2)(c2ccccc2)C(Oc2nc3c(c(OC)n2)CCC3)C(=O)O)cc(OC)c1 (stereo not drawn) [Compound I-321]
Ki (human ETA receptor): 340 nM | Ki (human ETB receptor): 290 nM

COc1ccc(CCOC(c2ccc(C)cc2)(c2ccc(C)cc2)C(Oc2nc(OC)c3c(n2)OCC3)C(=O)O)cc1 (stereo not drawn) [Compound I-355]
Ki (human ETA receptor): 132 nM | Ki (human ETB receptor): 82 nM

COc1cc(C)nc(OC(C(=O)O)C(OCCc2ccc(OC)c(OC)c2)(c2ccccc2)c2ccccc2)n1 (stereo not drawn) [Compound I-482, 2-(4-Methoxy-6-methyl-2-pyrimidinyloxy)-3-(2-(3,4-dimethoxyphenyl)ethoxy)-3,3-diphenylpropionic Acid]
Ki (human ETA receptor): 2 nM | Ki (human ETB receptor): 14 nM

COc1cc(C)nc(OC(C(=O)O)C(OCCCc2ccccc2)(c2ccccc2)c2ccccc2)n1 (stereo not drawn) [Compound I-499, 2-(4-Methoxy-6-methyl-2-pyrimidinyloxy)-3-(3-phenylpropoxy)-3,3-diphenylpropionic Acid]
Ki (human ETA receptor): 31 nM | Ki (human ETB receptor): 135 nM

COc1ccc(CCOC(c2ccccc2)(c2ccccc2)C(Oc2nc(C)cc(C)n2)C(=O)O)cc1 (stereo not drawn) [Compound I-585, 2-(4,6-Dimethyl-2-pyrimidinyloxy)-3-(2-(4-methoxyphenyl)ethoxy)-3,3-diphenylpropionic Acid]
Ki (human ETA receptor): 6 nM | Ki (human ETB receptor): 23 nM

COc1ccc(CCOC(c2ccccc2)(c2ccccc2)C(Oc2nc(C)cc(OC)n2)C(=O)O)cc1 (stereo not drawn) [Compound I-622, 2-(4-Methoxy-6-methyl-2-pyrimidinyloxy)-3-(2-(4-methoxyphenyl)ethoxy)-3,3-diphenylpropionic Acid]
Ki (human ETA receptor): 3 nM | Ki (human ETB receptor): 23 nM

Cc1cc(C)nc(OC(C(=O)O)C(OCCc2ccc(C(C)C)cc2)(c2ccccc2)c2ccccc2)n1 (stereo not drawn) [Compound I-672, 2-(4,6-Dimethyl-2-pyrimidinyloxy)-3-(2-(4-i-propylphenyl)ethoxy)-3,3-diphenylpropionic Acid]
Ki (human ETA receptor): 60 nM | Ki (human ETB receptor): 185 nM

COc1cc(C)nc(OC(C(=O)O)C(OCCc2ccccc2)(c2ccccc2)c2ccccc2)n1 (stereo not drawn) [Compound I-719, 2-(4-Methoxy-6-methyl-2-pyrimidinyloxy)-3-(2-phenylethoxy)-3,3-diphenylpropionic Acid]
melting point: 155 °C (dec.)

Cc1cc(C)nc(OC(C(=O)O)C(OCCc2ccccc2)(c2ccccc2)c2ccccc2)n1 (stereo not drawn) [Compound I-720, 2-(4,6-Dimethyl-2-pyrimidinyloxy)-3-(2-phenylethoxy)-3,3-diphenyl propionic Acid]
melting point: 130 to 133 °C

COc1cc(C)nc(OC(C(=O)O)C(OCCc2ccc(Cl)cc2)(c2ccccc2)c2ccccc2)n1 (stereo not drawn) [Compound I-746, 2-(4-Methoxy-6-methyl-2-pyrimidinyloxy)-3-(2-(4-chlorophenyl)ethoxy)-3,3-diphenylpropionic Acid]
melting point: 93 to 98 °C

COc1ccc(CCOC(c2ccccc2)(c2ccccc2)[C@@H](Oc2nc(C)cc(C)n2)C(=O)O)cc1OC [I-445 (R) enantiomer]
Ki (human ETA receptor): 65 nM | Ki (human ETB receptor): 140 nM

COc1ccc(CCOC(c2ccccc2)(c2ccccc2)[C@H](Oc2nc(C)cc(C)n2)C(=O)O)cc1OC [I-445 (S) enantiomer, (S)-2-(4,6-Dimethylpyrimidin-2-yloxy)-3-(2-(3,4-dimethoxyphenyl)ethoxy)-3,3-diphenylpropionic Acid]
Ki (human ETA receptor): 1.3 nM | Ki (human ETB receptor): 4.1 nM
